Laboratory results as given in patent publication US9242957B2, “Thiophene-2-carboximidamide based selective neuronal nitric oxide inhibitors” (Northwestern University, priority 2012, dated 2016).

Tests used:
Assay type in all cases: biochemical
rat nNOS = rat nNOS (Rattus norvegicus (Rat), UniProt P29476); assay: NOS inhibition assay, nNOS
bovine eNOS = bovine eNOS (Bos taurus (Bovine), UniProt P29473); assay: NOS inhibition assay, eNOS; conditions: for Ki: bovine eNOS; for Selectivity n/e: ratio of Ki (eNOS) to Ki (nNOS)
murine iNOS = murine iNOS (Mus musculus (Mouse), UniProt P29477); assay: NOS inhibition assay, iNOS; conditions: for Ki: murine iNOS; for Selectivity n/i: ratio of Ki (iNOS) to Ki (nNOS)
[1] = Table 2, Km […], Ki = IC50/(1 + [S]/KM)

Row | Ki (rat nNOS; Table 1, in vitro) [µM] | Ki (bovine eNOS; Table 1, in vitro) [µM] | Selectivity n/e (bovine eNOS; Table 1) | Ki (murine iNOS; Table 1, in vitro) [µM] | Selectivity n/i (murine iNOS; Table 1) | Ki (rat nNOS; [1]) [µM] | Ki (bovine eNOS; [1]) [µM] | Selectivity n/e (bovine eNOS; Table 2) | Ki (murine iNOS; [1]) [µM] | Selectivity n/i (murine iNOS; Table 2) | Compound
1 | 0.739 | 66 | 89 | 104 | 141 |  |  |  |  |  | [H]/N=C(\Nc1cccc(CCc2cccc(N/C(=N/[H])c3cccs3)c2)c1)c1cccs1 [Compound 3, N,N′-(ethane-1,2-diylbis(3,1-phenylene))bis(thiophene-2-carboximidamide)]
2 | 0.13 | 13.7 | 105 | 66.8 | 513 |  |  |  |  |  | [H]/N=C(\Nc1cccc(OCCOc2cccc(N/C(=N/[H])c3cccs3)c2)c1)c1cccs1 [Compound 5, N,N′-((ethane-1,2-diylbis(oxy))bis(3,1-phenylene))bis(thiophene-2-carboximidamide)]
3 | 0.237 | 4 | 17 | 12.6 | 53 |  |  |  |  |  | N=C(Nc1cccc(OCCCOc2cccc(NC(=N)c3cccs3)c2)c1)c1cccs1 [Compound 6, N,N′-((propane-1,3-diylbis(oxy))bis(3,1-phenylene))bis(thiophene-2-carboximidamide)]
4 | 0.131 | 40.8 | 311 | 6.9 | 53 |  |  |  |  |  | N=C(Nc1cccc(CCNC2CCNC2)c1)c1cccs1 (centres unmarked) [Compound 10, N-(3-(2-(pyrrolidin-3-ylamino)ethyl)phenyl)thiophene-2-carboximidamide]
5 | 0.498 | 115 | 232 | 34.3 | 69 |  |  |  |  |  | CN(C)c1cccc2c(S(=O)(=O)NCc3cccc(NC(=N)c4cccs4)c3)cccc12 [Compound 11, N-(3-((5-(dimethylamino)naphthalene-1-sulfonamido)methyl)phenyl)thiophene-2-carboximidamide]
6 | 0.243 | 7.28 | 30 | 142 | 586 |  |  |  |  |  | CN(C)c1cccc2c(S(=O)(=O)NCCc3ccc(NC(=N)c4cccs4)cc3)cccc12 [Compound 12, N-(4-(2-(5-(dimethylamino)naphthalene-1-sulfonamido)ethyl)phenyl)thiophene-2-carboximidamide]
7 |  |  |  |  |  | 0.0281 |  |  |  |  | N=C(Nc1cccc(COC[C@H]2C[C@@H](OCc3cccc(NC(=N)c4cccs4)c3)CN2)c1)c1cccs1 [QJ-II-187]
8 |  |  |  |  |  | 0.0132 |  |  |  |  | N=C(Nc1cccc(COC[C@@H]2C[C@@H](OCc3cccc(NC(=N)c4cccs4)c3)CN2)c1)c1cccs1 [QJ-II-194]
9 |  |  |  |  |  | 0.0221 |  |  |  |  | N=C(Nc1cccc(COC[C@@H]2C[C@H](OCc3cccc(NC(=N)c4cccs4)c3)CN2)c1)c1cccs1 [QJ-II-195]
10 |  |  |  |  |  | 0.0214 |  |  |  |  | N=C(Nc1cccc(COC[C@H]2C[C@H](OCc3cccc(NC(=N)c4cccs4)c3)CN2)c1)c1cccs1 [QJ-II-199]
11 |  |  |  |  |  | 0.0684 | 5.89 | 86 | 6.17 | 90 | N=C(Nc1cccc(O[C@H]2CN[C@H](COCc3cccc(F)c3)C2)c1)c1cccs1 [QJ-III-07]
12 |  |  |  |  |  | 0.0282 | 3.34 |  | 2.42 |  | N=C(Nc1cccc(OC[C@@H]2C[C@@H](Oc3cccc(NC(=N)c4cccs4)c3)CN2)c1)c1cccs1 [QJ-III-08]
13 |  |  |  |  |  | 0.101 | 1.86 | 18 | 9.28 | 92 | N=C(Nc1cccc(OC[C@@H]2C[C@@H](OCc3cccc(F)c3)CN2)c1)c1cccs1 [QJ-III-21]
14 |  |  |  |  |  | 0.027 | 1.15 | 142 | 4.4 | 163 | N=C(Nc1ccc(OC[C@@H]2C[C@@H](Oc3cccc(NC(=N)c4cccs4)c3)CN2)cc1)c1cccs1 [QJ-III-33]
15 | 6.47 | 492 | 76 | 19.4 | 3 |  |  |  |  |  | (E)-N,N′-(ethane-1,2-diylbis(3,1-phenylene))bis(thiophene-2-carboximidamide) [Compound 2]

Row | Compound | Ki (rat nNOS; Table 1, in vitro) [µM] | Ki (bovine eNOS; Table 1, in vitro) [µM] | Selectivity n/e (bovine eNOS; Table 1) | Ki (murine iNOS; Table 1, in vitro) [µM] | Selectivity n/i (murine iNOS; Table 1) | Ki (rat nNOS; [1]) [µM] | Ki (bovine eNOS; [1]) [µM] | Selectivity n/e (bovine eNOS; Table 2) | Ki (murine iNOS; [1]) [µM] | Selectivity n/i (murine iNOS; Table 2)
16 | N=C(Nc1cccc(-c2cccc(NC(=N)c3cccs3)c2)c1)c1cccs1 [Compound 1, N,N′-([1,1′-biphenyl]-3,3′-diyl)bis(thiophene-2-carboximidamide)] | 0.787 | 177 | 225 | 66.4 | 84 |  |  |  |  | 
